Laboratory results published in PubChem BioAssay (NCI).
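Step 1: Grow cells in 96-well plates. Step 2: Expose to compound for 48 hours at 5 concentrations. Step 3: Interpolate endpoints linearly; if unreached, use highest concentration. Definition used: TGI = concentration required for complete inhibition of growth.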

Tests used:
Assay in all cases: NCI anticancer screen, dose series, 48 h
786-0 renal = tested on: 786-0 renal
A498 renal = tested on: A498 renal
A549 NSCLC = tested on: A549 NSCLC
ACHN renal = tested on: ACHN renal
BT-549 breast = tested on: BT-549 breast
CAKI-1 renal = tested on: CAKI-1 renal
CCRF-CEM leukemia = tested on: CCRF-CEM leukemia
COLO 205 colon = tested on: COLO 205 colon
DU-145 prostate = tested on: DU-145 prostate
EKVX NSCLC = tested on: EKVX NSCLC
HCC-2998 colon = tested on: HCC-2998 colon
HCT-116 colon = tested on: HCT-116 colon
HCT-15 colon = tested on: HCT-15 colon
HL-60(TB) leukemia = tested on: HL-60(TB) leukemia
HOP-62 NSCLC = tested on: HOP-62 NSCLC
HOP-92 NSCLC = tested on: HOP-92 NSCLC
HS 578T breast = tested on: HS 578T breast
HT29 colon = tested on: HT29 colon
IGROV1 ovarian = tested on: IGROV1 ovarian
K-562 leukemia = tested on: K-562 leukemia
KM12 colon = tested on: KM12 colon
LOX IMVI melanoma = tested on: LOX IMVI melanoma
M14 melanoma = tested on: M14 melanoma
MALME-3M melanoma = tested on: MALME-3M melanoma
MCF7 breast = tested on: MCF7 breast
MDA-MB-231 breast = tested on: MDA-MB-231 breast
MDA-MB-435 = tested on: MDA-MB-435
MDA-N = tested on: MDA-N
MOLT-4 leukemia = tested on: MOLT-4 leukemia
NCI-H226 lung = tested on: NCI-H226 lung
NCI-H23 lung = tested on: NCI-H23 lung
NCI-H460 lung = tested on: NCI-H460 lung
NCI-H522 lung = tested on: NCI-H522 lung
NCI/ADR-RES ovarian = tested on: NCI/ADR-RES ovarian
OVCAR-3 ovarian = tested on: OVCAR-3 ovarian
OVCAR-4 ovarian = tested on: OVCAR-4 ovarian
OVCAR-5 ovarian = tested on: OVCAR-5 ovarian
OVCAR-8 ovarian = tested on: OVCAR-8 ovarian
PC-3 prostate = tested on: PC-3 prostate
RPMI-8226 leukemia = tested on: RPMI-8226 leukemia
RXF 393 renal = tested on: RXF 393 renal
SF-268 CNS = tested on: SF-268 CNS
SF-295 CNS = tested on: SF-295 CNS
SF-539 CNS = tested on: SF-539 CNS
SK-MEL-2 melanoma = tested on: SK-MEL-2 melanoma
SK-MEL-28 melanoma = tested on: SK-MEL-28 melanoma
SK-MEL-5 melanoma = tested on: SK-MEL-5 melanoma
SK-OV-3 ovarian = tested on: SK-OV-3 ovarian
SN12C renal = tested on: SN12C renal
SNB-19 CNS = tested on: SNB-19 CNS
SNB-75 CNS = tested on: SNB-75 CNS
SR leukemia = tested on: SR leukemia
SW-620 colon = tested on: SW-620 colon
T-47D breast = tested on: T-47D breast
TK-10 renal = tested on: TK-10 renal
U251 CNS = tested on: U251 CNS
UACC-257 melanoma = tested on: UACC-257 melanoma
UACC-62 melanoma = tested on: UACC-62 melanoma
UO-31 renal = tested on: UO-31 renal

COC(=O)CC1(O)C=CC(=O)C=C1
TGI (786-0 renal): 6.89 µM | TGI (A498 renal): 15.9 µM | TGI (A549 NSCLC): 39.4 µM | TGI (ACHN renal): 9.79 µM | TGI (BT-549 breast): 18.1 µM | TGI (CAKI-1 renal): 11.6 µM | TGI (CCRF-CEM leukemia): 6.11 µM | TGI (COLO 205 colon): 17.8 µM | TGI (DU-145 prostate): 18.6 µM | TGI (EKVX NSCLC): 15.5 µM | TGI (HCC-2998 colon): 29.4 µM | TGI (HCT-116 colon): 26.7 µM | TGI (HCT-15 colon): 8.76 µM | TGI (HL-60(TB) leukemia): > 22.6 µM | TGI (HOP-62 NSCLC): 18.1 µM | TGI (HOP-92 NSCLC): 22.6 µM | TGI (HS 578T breast): 39.4 µM | TGI (HT29 colon): 17.6 µM | TGI (IGROV1 ovarian): 5.04 µM | TGI (K-562 leukemia): > 100 µM | TGI (KM12 colon): 3.46 µM | TGI (LOX IMVI melanoma): 6.76 µM | TGI (M14 melanoma): 16.6 µM | TGI (MALME-3M melanoma): 6.9 µM | TGI (MCF7 breast): 15.2 µM | TGI (MDA-MB-231 breast): 6.51 µM | TGI (MDA-MB-435): 21.8 µM | TGI (MDA-N): 20.9 µM | TGI (MOLT-4 leukemia): 7.25 µM | TGI (NCI-H226 lung): 26.8 µM | TGI (NCI-H23 lung): 10.9 µM | TGI (NCI-H460 lung): 5.02 µM | TGI (NCI-H522 lung): 4.04 µM | TGI (NCI/ADR-RES ovarian): 32.4 µM | TGI (OVCAR-3 ovarian): 13.7 µM | TGI (OVCAR-4 ovarian): 11.6 µM | TGI (OVCAR-5 ovarian): 25 µM | TGI (OVCAR-8 ovarian): 17.3 µM | TGI (PC-3 prostate): 6.35 µM | TGI (RPMI-8226 leukemia): 31.4 µM | TGI (RXF 393 renal): 17.9 µM | TGI (SF-268 CNS): 14.8 µM | TGI (SF-295 CNS): 17.7 µM | TGI (SF-539 CNS): 12.8 µM | TGI (SK-MEL-2 melanoma): 14.6 µM | TGI (SK-MEL-28 melanoma): 7.47 µM | TGI (SK-MEL-5 melanoma): 10.3 µM | TGI (SK-OV-3 ovarian): 29.6 µM | TGI (SN12C renal): 37.6 µM | TGI (SNB-19 CNS): 21.3 µM | TGI (SNB-75 CNS): 14.2 µM | TGI (SR leukemia): > 100 µM | TGI (SW-620 colon): 27.3 µM | TGI (T-47D breast): 25.7 µM | TGI (TK-10 renal): 16 µM | TGI (U251 CNS): 18.5 µM | TGI (UACC-257 melanoma): 7.64 µM | TGI (UACC-62 melanoma): 5 µM | TGI (UO-31 renal): 9.93 µM
